# Results published in patent publication US20100285140A1, “ANTIMICROBIAL AGENT FOR GRAM-POSITIVE BACTERIA” (priority 2007, published 2010).
# Experiments:
# Experiment in all cases: broth microdilution MIC/MBC
# Assay type in all cases: cell-based
# [1] = system: MSSA JCM2874; settings: Staphylococcus aureus, ABPC
# [2] = system: MSSA ATCC6538; settings: Staphylococcus aureus, ABPC
# [3] = system: MRSA clinical isolate 2022 blaZ(−); settings: Staphylococcus aureus, ABPC
# [4] = system: MRSA N315; settings: Staphylococcus aureus, ABPC
# [5] = system: VRE GTC02000; settings: Enterococcus, ABPC
# [6] = system: MRSA clinical isolate 2005 blaZ(+); settings: Staphylococcus aureus, ABPC
# [7] = system: VSE5804; settings: Enterococcus, ABPC
# Experimental: Ampicillin (ABPC) was used as a positive control. The measurement was carried out in accordance with a broth microdilution method (NCCLS). […] These serial dilutions were placed in a 96-well plate, and a bacterial strain was added to each well at an amount of 10^5 CFU/ml, followed by incubation at 35° C. for 18 hours. In the case where turbidity was visually observed, it was judged that the bacterial strain grew. The lowest concentration at which the bacterial growth was not observed was defined as MIC. A solution was collected from the well in which bacterial growth was not observed, added to an antibiotic-free medium, and then incubated at 35° C. for 18 hours, followed by visually observing existence of turbidity. The lowest concentration at which turbidity was not observed was defined as MBC. Values in the tables are: ABPC, μg/ml; polymer particles, mg/ml. Numbers in the parentheses indicate the dilution factor.
# [8] = system: MRSA JCM8703; settings: Staphylococcus aureus, ABPC
# [9] = system: MRSA clinical isolate 2526 blaZ(+); settings: Staphylococcus aureus, ABPC
# [10] = system: MRSA clinical isolate 1801 blaZ(−); settings: Staphylococcus aureus, ABPC
compound,measurement,setting,value
"CC1(C)S[C@@H]2[C@H](NC(=O)[C@H](N)c3ccccc3)C(=O)N2[C@H]1C(=O)O [ABPC, Ampicillin]",MBC,[1],2 µg/mL
same,MIC,[1],2 µg/mL
same,MBC,[2],0.063 µg/mL
same,MIC,[2],0.063 µg/mL
same,MBC,[3],16 µg/mL
same,MIC,[3],16 µg/mL
same,MBC,[4],32 µg/mL
same,MBC,[5],1 µg/mL
same,MIC,[5],1 µg/mL
same,MBC,[6],64 µg/mL
same,MIC,[6],64 µg/mL
same,MBC,[7],0.5 µg/mL
same,MIC,[7],0.5 µg/mL
same,MBC,[8],64 µg/mL
same,MIC,[8],64 µg/mL
same,MBC,[9],64 µg/mL
same,MIC,[9],64 µg/mL
same,MBC,[10],16 µg/mL
same,MIC,[10],16 µg/mL
